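Following 48 hours of exposure in 96-well plates, responses at five concentrations were used to interpolate endpoints linearly. The concentration for 50% growth inhibition is given as GI50. TGI: total growth inhibition.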
Assays:
Test in all cases: inhibition of tumour cell growth, NCI panel, 48 h
[1] = tested on: CAKI-1 renal
[2] = tested on: K-562 leukemia
[3] = tested on: M14 melanoma
[4] = tested on: MALME-3M melanoma
[5] = tested on: NCI-H226 lung
[6] = tested on: NCI-H522 lung
[7] = tested on: NCI/ADR-RES ovarian
[8] = tested on: SF-539 CNS
[9] = tested on: SK-MEL-2 melanoma
[10] = tested on: UACC-257 melanoma

Compound | GI50 [1] [µM] | TGI [1] [µM] | GI50 [2] [µM] | TGI [2] [µM] | GI50 [3] [µM] | TGI [3] [µM] | GI50 [4] [µM] | TGI [4] [µM] | GI50 [5] [µM] | TGI [5] [µM] | GI50 [6] [µM] | GI50 [7] [µM] | GI50 [8] [µM] | TGI [8] [µM] | GI50 [9] [µM] | TGI [9] [µM] | GI50 [10] [µM] | TGI [10] [µM] | TGI [6] [µM] | TGI [7] [µM]
COc1cc2c(cc1OCCCCCn1c(-c3ccco3)nc3ccccc31)N=C[C@@H]1CCCN1C2=O | < 0.01 | 0.0318 | < 0.01 | > 100 | < 0.01 | 0.0236 | < 0.01 | < 0.01 | < 0.01 | < 0.0136 | < 0.01 | 0.295 | < 0.01 | < 0.0472 | < 0.0147 | 0.07 | < 0.01 | < 0.01 | – | –
Cc1cc(NCCCCNc2ccnc3cc(Cl)ccc23)nc(Nc2ccc(C(=O)N3CCCC3)cc2)n1 | 2.06 | 5.6 | 0.306 | 2.33 | 1.96 | 3.87 | 1.89 | 4.17 | 5.13 | 18.2 | 2.16 | 16.4 | 1.74 | 3.54 | 2.18 | 4.27 | 2.09 | 4.19 | 4.87 | 72.8
N#Cc1c(NC(=O)c2cccc3ccccc23)sc2c1CCCC2 | 0.0637 | > 25 | 0.0115 | > 25 | 0.0249 | 0.116 | 0.0174 | > 25 | 0.195 | > 25 | 0.024 | 0.0128 | 0.0274 | > 25 | 0.137 | > 25 | – | > 25 | 0.259 | 0.117
COc1cc2c3c(n(CCCCNC(=O)OCC4c5ccccc5-c5ccccc54)c(=O)c2cc1OC)-c1cc2c(cc1C3=O)OCO2 | 5.3 | > 100 | 3.05 | 27.4 | 25.9 | > 100 | > 100 | > 100 | 31.1 | > 100 | 11.1 | 58.1 | 6.42 | 37.6 | 70.4 | > 100 | > 100 | > 100 | > 100 | > 100
CCN(CC)CCCNc1nc2ccccc2c2c(=O)c3cc(Cl)ccc3sc12 | 4.4 | 17.1 | 2.29 | 5.51 | 1.94 | 3.81 | 1.63 | 3.26 | 10.7 | 25.1 | 2.02 | 2.04 | 1.73 | 3.35 | 10.4 | 27.5 | 5.43 | 22.5 | 4.41 | 4.99
COc1ccc(Cn2cnc3cc(C(=O)Nc4cccc5ccccc45)ccc32)c(OC)c1 | 0.0387 | > 100 | 0.0344 | > 100 | 0.0275 | – | 0.0614 | > 100 | 0.111 | > 100 | 0.039 | 0.042 | 0.0316 | 0.147 | 0.945 | > 100 | 39 | > 100 | – | > 100

Source: PubChem BioAssay (NCI)
